OCCCCCCO
solubility (mole fraction)
Settings	283.15 K	288.15 K	293.15 K	298.15 K	303.15 K
in DMAc	0.0205	0.0298	0.0469	0.0688	0.0939
in methanol	0.365	0.428	0.51	0.585	0.698
in n-butanol	0.316	0.389	0.479	0.577	0.689

Source: BigSolDB 2.1
